In publication PMC8075810 (Cell Chemical Biology, 2021):

What was measured:
SCoV2 PLpro [1] = molecular target: T1, SCoV2 PLpro (Severe acute respiratory syndrome coronavirus 2, UniProt P0DTD1); type: cell-based, SARS-CoV-2; conditions: 10 μM, western blot
SCoV2 PLpro [2] = molecular target: T1, SCoV2 PLpro; experiment: biochemical; type: biochemical, SARS-CoV-2

C[C@H](c1cccc2ccccc12)N1CCC(C(=O)NCc2cc(F)cc(NC(=O)N3CCN(C)CC3)c2)CC1 [Inhibitor 19, (R)-N-(3-fluoro-5-((1-(1-(naphthalen-1-yl)ethyl)piperidine-4-carboxamido)methyl)phenyl)-4-methylpiperazine-1-carboxamide]
inhibition of SCoV2 PLpro (nsp1-nsp2 cleavage) in 293T cells (SCoV2 PLpro [1]): significantly inhibited

CC(C)c1cc(C(C)C)c(CC(=O)NS(=O)(=O)Oc2c(C(C)C)cccc2C(C)C)c(C(C)C)c1 [avasimibe]
inhibition at 10 µM (SCoV2 PLpro [2]; read-out: inhibition of SCoV2 PLpro): > 50%

O=C(O)C(=O)c1cn(Cc2ccccc2)c2ccc(-c3ccc(OC(F)(F)F)cc3)cc12 [tiplaxtinin]
inhibition of SCoV2 PLpro (SCoV2 PLpro [2]; 10 μM compound, probe 7): over 50%

vitamin B12
inhibition of SCoV2 PLpro (SCoV2 PLpro [2]; 10 µM): over 50%
